In ChEMBL document CHEMBL1127183, “Synthesis of 6-amino-5-oxo-7-phenyl-1,4-oxazepines as conformationally constrained gauche () dipeptide mimetics” (Bioorg Med Chem Lett, 1993):

Biological target: Angiotensin-converting enzyme (Homo sapiens, UniProt P12821)
Experiment: Binding affinity against Angiotensin I converting enzyme

Angiotensin-converting enzyme, sequence (P12821 whole entry): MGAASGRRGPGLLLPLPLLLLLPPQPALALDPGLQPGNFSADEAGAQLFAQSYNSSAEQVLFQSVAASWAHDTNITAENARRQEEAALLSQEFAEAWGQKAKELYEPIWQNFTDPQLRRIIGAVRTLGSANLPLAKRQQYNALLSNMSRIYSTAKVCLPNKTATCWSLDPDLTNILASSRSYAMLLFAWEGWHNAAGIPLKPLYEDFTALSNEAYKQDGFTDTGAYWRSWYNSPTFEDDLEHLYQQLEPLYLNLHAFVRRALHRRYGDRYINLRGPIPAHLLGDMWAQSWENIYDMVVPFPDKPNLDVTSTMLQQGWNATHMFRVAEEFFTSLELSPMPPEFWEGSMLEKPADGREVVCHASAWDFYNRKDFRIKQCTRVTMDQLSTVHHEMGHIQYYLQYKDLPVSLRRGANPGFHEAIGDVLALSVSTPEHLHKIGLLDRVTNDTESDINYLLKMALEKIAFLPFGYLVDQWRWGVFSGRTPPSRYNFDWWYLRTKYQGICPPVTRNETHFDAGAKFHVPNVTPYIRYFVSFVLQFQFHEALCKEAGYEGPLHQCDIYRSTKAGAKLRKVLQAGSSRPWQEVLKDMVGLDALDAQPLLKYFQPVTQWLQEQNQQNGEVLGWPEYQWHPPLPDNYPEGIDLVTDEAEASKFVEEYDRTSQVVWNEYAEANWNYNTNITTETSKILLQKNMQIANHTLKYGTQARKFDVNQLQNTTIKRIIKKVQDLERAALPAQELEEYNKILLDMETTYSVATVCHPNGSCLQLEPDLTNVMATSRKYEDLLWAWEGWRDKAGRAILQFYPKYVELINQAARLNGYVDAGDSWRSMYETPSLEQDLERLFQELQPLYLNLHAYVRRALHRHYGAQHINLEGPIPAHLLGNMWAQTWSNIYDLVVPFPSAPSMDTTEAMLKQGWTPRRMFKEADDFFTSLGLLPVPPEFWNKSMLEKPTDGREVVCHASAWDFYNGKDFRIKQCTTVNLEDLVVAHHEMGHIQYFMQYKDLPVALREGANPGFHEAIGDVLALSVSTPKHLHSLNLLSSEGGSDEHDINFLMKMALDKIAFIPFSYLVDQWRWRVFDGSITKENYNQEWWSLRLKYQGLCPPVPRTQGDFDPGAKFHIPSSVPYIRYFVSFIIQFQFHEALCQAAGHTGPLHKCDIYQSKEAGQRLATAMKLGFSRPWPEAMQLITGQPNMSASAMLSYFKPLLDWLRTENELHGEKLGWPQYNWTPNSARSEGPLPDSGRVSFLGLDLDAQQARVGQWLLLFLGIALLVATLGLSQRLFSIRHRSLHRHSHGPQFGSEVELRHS

CC(C)C[C@H](C(=O)O)N1CCO[C@@H](c2ccccc2)[C@H](NC(=O)[C@H](S)Cc2ccccc2)C1=O
Ki: 50 µM
